Laboratory results from patent US4486445A, “Justicidin insecticidal and antiviral compounds” (E. I. Du Pont de Nemours and Company, priority 1983, dated 1984).
≈ marks a conversion by molar mass, not a printed value.

Tests used:
Aedes egypti larvae [1] = test: insecticidal activity against larvae of A. egypti in water; assay type: in vivo; conditions: Aedes; larvae of A. egypti in H2O; read-out: EC50 (effective kill concentration for 50% of the experimental larvae)
Description: (§1) The insecticidal activity of the crude acetone/water extracts of Justicia extensa, prepared according to the isolation procedure described previously, was tested against laboratory cultures of the mosquito species Aedes egypti (Linnaeus) and southern army worm (SAW) Spodoptera eridania (Cramer). Extracts of leaves, branches and roots were employed in each test.
In tests against larvae of A. egypti, 10 mg of the crude plant extract was thoroughly dispersed in 20 ml of water in a test tube to which 10 first instar larvae were added.

Spodoptera eridania = test: insecticidal and feeding inhibition test against southern army worm in pinto bean diet; assay type: in vivo
Description: as §1

[2] = tested on: southern army worm (SAW) Spodoptera eridania; test: spray applied to SAW; assay type: in vivo
Description: When a spray containing 2.0 mg/ml purified Justicidin P in water was applied to SAW, 85% feeding inhibition but 0% kill was observed.

Herpes Type 1-strain VR3 = test: plaque formation inhibition, Herpes Type 1 in HeLa cells; assay type: cell-based
[3] = tested on: Herpes Type 2-Alabama strain; test: plaque formation inhibition, Herpes Type 2 in HeLa cells; assay type: cell-based
HeLa cells = assay type: cell-based; conditions: 64 μg/ml to 1 μg/ml
[4] = tested on: Human Rhino Virus (HRV-2); test: inhibition of HRV-2 in HeLa cells; assay type: cell-based, Human rhinovirus HRV-2; conditions: Rhinovirus A, 200 PFU
out-bred mice = test: in vivo oral toxicity in out-bred mice; conditions: orally, up to about 324 mg/kg
Description: (§2) In vivo toxicity studies of natural and synthetic Justicidin P produced mixed results. […] However, natural and synthetic Justicidin P were toxic to A/JAX inbred mice when administered orally at dosages of 200 and 100 mg/kg.

A/JAX inbred mice = test: in vivo oral toxicity in A/JAX inbred mice; conditions: orally, 200 and 100 mg/kg
Description: as §2

[5] = in vitro toxicity in MDCK cells; assay type: cell-based, Canine; conditions: dog
Description: In vitro toxicity studies of natural Justicidin P were conducted using Madin-Darby Canine Kidney (MDCK) cells and test concentrations ranging between 0.01 and 0.56 μg/ml. In these tests, Justicidin P was suspended in MEM, diluted, and suspended in a purified agar solution. Duplicate plates containing MDCK cell layers were washed twice with HBSS, overlayed with the test compound-agar solutions, and incubated at 34° C., 5% CO2 for 72 hours. At the conclusion of the incubation period, cell layers were stained with 1% crystal violet, rinsed with tap water, dried and visually inspected to determine toxicity.

IMR-90 cells = conditions: all concentrations tested
Aedes egypti larvae [6] = test: insecticidal activity against larvae of A. egypti in water; assay type: in vivo; conditions: lower concentrations
in vitro = conditions: human, diploid fibroblast cells

Structure (SMILES): COc1cc2c(OC)c3c(c(-c4ccc5c(c4)OCO5)c2cc1OC)C(=O)OC3OC (single isomer, unassigned) [Justicidin P (natural)]
- LC50 (Aedes egypti larvae [1]): 0.05 µg/mL (≈ 0.118 µM)
- feeding inhibition (Spodoptera eridania; 1 μg/gm in pinto bean diet): 62%
- feeding inhibition (Spodoptera eridania; 10 μg/gm in pinto bean diet): 77%
- feeding inhibition (Spodoptera eridania; 100 μg/gm in pinto bean diet): 85%
- mortality at 1 µg/g (Spodoptera eridania; Spodoptera eridania, 1 μg/gm in pinto bean diet, read-out: kill): 20%
- mortality at 10 µg/g (Spodoptera eridania; Spodoptera eridania, 10 μg/gm in pinto bean diet, read-out: kill): 10%
- mortality at 100 µg/g (Spodoptera eridania; Spodoptera eridania, 100 μg/gm in pinto bean diet, read-out: kill): 60%
- mortality at 2000 µg/mL ([2]; Spodoptera eridania, topical, read-out: kill): 0%
- feeding inhibition ([2]; spray containing 2.0 mg/ml in water): 85%
- Mean Plaques/Plate (Herpes Type 1-strain VR3; 0.004 μg/ml, HSV-1, HeLa): 134
- Mean Plaques/Plate (Herpes Type 1-strain VR3; 0.016 μg/ml, HSV-1, HeLa): 117
- Mean Plaques/Plate (Herpes Type 1-strain VR3; 0.063 μg/ml, HSV-1, HeLa): 122
- Mean Plaques/Plate (Herpes Type 1-strain VR3; 0.25 μg/ml, HSV-1, HeLa): 87
- antiviral activity against Herpes Type 1 (Herpes Type 1-strain VR3; HeLa cells): demonstrated antiviral activity
- inhibition at 0.004 µg/mL (Herpes Type 1-strain VR3; Human alphaherpesvirus 1, 0.004 μg/ml, HSV-1, HeLa): 0%
- inhibition at 0.016 µg/mL (Herpes Type 1-strain VR3; Human alphaherpesvirus 1, 0.016 μg/ml, HSV-1, HeLa): 6%
- inhibition at 0.063 µg/mL (Herpes Type 1-strain VR3; Human alphaherpesvirus 1, 0.063 μg/ml, HSV-1, HeLa): 2%
- inhibition at 0.25 µg/mL (Herpes Type 1-strain VR3; Human alphaherpesvirus 1, 0.25 μg/ml, HSV-1, HeLa): 31%
- Mean Plaques/Plate ([3]; 0.004 μg/ml, HSV-2, HeLa): 136
- Mean Plaques/Plate ([3]; 0.016 μg/ml, HSV-2, HeLa): 114
- Mean Plaques/Plate ([3]; 0.063 μg/ml, HSV-2, HeLa): 60
- Mean Plaques/Plate ([3]; 0.25 μg/ml, HSV-2, HeLa): 7
- antiviral activity against Herpes Type 2 ([3]; HeLa cells): demonstrated antiviral activity
- inhibition at 0.004 µg/mL ([3]; Human alphaherpesvirus 2, 0.004 μg/ml, HSV-2, HeLa): 14%
- inhibition at 0.016 µg/mL ([3]; Human alphaherpesvirus 2, 0.016 μg/ml, HSV-2, HeLa): 28%
- inhibition at 0.063 µg/mL ([3]; Human alphaherpesvirus 2, 0.063 μg/ml, HSV-2, HeLa): 62%
- inhibition at 0.25 µg/mL ([3]; Human alphaherpesvirus 2, 0.25 μg/ml, HSV-2, HeLa): 96%
- cytotoxicity (HeLa cells): severe cytotoxicity
- inhibition at 0.016 µg/mL ([4]; HRV2, 0.016 μg/ml): 107%
- inhibition at 0.08 µg/mL ([4]; HRV2, 0.08 μg/ml): ≥ 100%
- inhibition at 0.4 µg/mL ([4]; HRV2, 0.4 μg/ml): ≥ 100%
- inhibition at 2 µg/mL ([4]; HRV2, 2 μg/ml): ≥ 100%
- inhibition at 10 µg/mL ([4]; HRV2, 10 μg/ml): 64%
- in vivo toxicity (out-bred mice): no toxicity was observed
- in vivo toxicity (A/JAX inbred mice): toxic
- cytotoxicity at 72 h ([5]; 0.01 μg/ml): 1%
- cytotoxicity at 72 h ([5]; 0.02 μg/ml): 5%
- cytotoxicity at 72 h ([5]; 0.05 μg/ml): 15%
- cytotoxicity at 72 h ([5]; 0.11 μg/ml): 30%
- cytotoxicity at 72 h ([5]; 0.25 μg/ml): 40%
- cytotoxicity at 72 h ([5]; 0.56 μg/ml): 70%
- cytotoxicity (IMR-90 cells): exhibited cytotoxicity at all concentrations tested
- insecticidal activity of purified fractions (Aedes egypti larvae [6]): insecticidal component of the J. extensa extracts
- selectivity ratio (in vitro): 10 to 60
